Results on 61 compounds are retold here after a melting point compilation (Tetko et al.; mined from patent text by program, amines drawn as free bases though some values may be those of a salt).

Usually melting point stands for the temperature, or range, at which the solid turns liquid. The compound `CN(C)c1ccc(-n2ccn(C3CCc4ccccc4C3)c2=S)nn1` (stereo unspecified) came in with a melting point of 198 to 199 °C.
The result for `CC#CCOc1cc(Oc2cccc(C#N)c2)ncn1` reads 121 °C; that for `COc1cccc(OC)c1Cn1cnc2ccc(O)cc2c1=O`, 243 to 245 °C; that for `COc1ccc2cccc(C(CO)CNC(=O)C(F)(F)F)c2c1` (stereo unspecified), 138 to 140 °C.
As for `COc1ccc(S(=O)(=O)C(C)(Cc2ccc3ccccc3c2)C(=O)NO)cc1` (stereo unspecified), the melting point lay within 185 to 187 °C.
As to `Cc1oc2c(C)c(C)c(NC(=O)c3ccc(F)cc3)c(C)c2c1-c1ccc(F)cc1`, the melting point fell in the range of 232 to 234 °C.
Next, `N[C@@]1(C(=O)O)C[C@H](NC(=O)Nc2c(Cl)cccc2Cl)[C@H]2[C@H](C(=O)O)[C@H]21` (relative stereo): greater than 250 °C.
Next, `CCC(O)(c1ccc(F)cc1)c1ccc(OCc2ccccc2)cc1` (stereo unspecified): 56 to 57 °C; `CCOC(=O)c1cc2c(s1)-c1c(SC)sc(C(=O)OCC)c1CC2`: 107 to 108 °C.
Consider `CC(=O)[C@H]1[C@H](C(=O)O)C1(C)C` (relative stereo), for which the melting point was 111 °C.
Turning to `COC(=O)C1CCCn2c(=O)n(CC(=O)OCc3ccccc3)c(=O)n21` (stereo unspecified), the melting point is 103 to 106 °C.
Regarding `Cc1c(-c2ccncc2)[nH]c(-c2ccncc2)c1C(C)O` (stereo unspecified), the melting point lay within 250 to 252 °C.
The compound `O=Cc1cccn2cc(-c3ccccc3)nc12` registered a melting point of 96 to 99 °C.
Next, `CC(C)(Cc1ccc(OC(F)(F)F)cc1)C(=O)C(C)(C)n1cncn1`: 100 °C; `COc1ccc(SC(C(=O)NO)C(C)C)cc1` (stereo unspecified): 119 °C.
Next, `CC1(C)Oc2ccc(C#N)cc2C(OC2=CC(=O)CC2)C1(C)O` (stereo unspecified): 204 to 206 °C.
In turn, `CCOC(=O)CC(=O)c1ccc(C#N)cc1` yielded a melting point of 64 °C.
Next, `C=CCOCC(O)CN1CCN(c2nc(-c3ccccc3)nc3ccccc23)CC1` (stereo unspecified): 85 to 87 °C; `[N-]=[N+]=NCc1ccc(C(=O)c2ccc(Cl)cc2)c(Cl)c1`: 33 to 33.5 °C; `O=c1nc(-c2ccccc2)c2cc(Cl)ccc2n1CC(F)(F)F`: 184 to 185 °C.
The result for `CCCCCCc1c(CCCC)nc2ncnn2c1N` reads 134 to 136 °C; that for `C=CCCCSC1NN=C(c2ccncc2)N1c1ccccc1` (stereo unspecified), 132 to 133 °C.
The compound `Clc1ccc(N2CCN(Cc3n[nH]c4ccccc34)CC2)nc1` gave a melting point of 203 to 204 °C.
Next, `COc1cc2c(cc1OC)/C(=N/OCc1ccc3nonc3c1)CC2`: 163 to 166 °C; `O=C(Cn1c(-c2ccc(Cl)cc2)nc2cccnc21)N(c1ccccc1)c1ccccc1`: 176 to 178 °C; `CS(=O)(=O)c1ccc(-n2nc(C(F)(F)F)cc2-c2ccc(-c3cocn3)cc2)cc1F`: 164 to 166 °C.
Consider `O=C1CN2CCOC2(c2ccccc2F)c2cc(Cl)ccc2N1CCO` (stereo unspecified), for which the melting point fell in the range of 141 to 146 °C.
The result for `CCCCCCCCCCCCCCCCCC(=O)Nc1cccc(N(CC(=O)O)CC(=O)O)c1` reads 135 to 140 °C; that for `CC(C)CCC[C@H](NC(=O)[C@@H](N)Cc1c[nH]cn1)[C@@H](O)C1CCCCC1`, 126 to 130 °C.
`COc1cc2ncc(C#N)c(Nc3cccc(C(N)=O)c3)c2cc1OC` gave a melting point of 253 to 255 °C.
Next, `CC(C)(C)NCC(O)COc1ccccc1C=Cc1cccc2c1CC(=O)N2` (stereo unspecified): 112 °C; `C[Si](C)(Cn1ccnc1)c1ccc(-c2ccccc2)cc1`: 51 to 53 °C.
Next, `COc1cccc(/C=C/C(=O)N2CC(CCl)c3c2cc([N+](=O)[O-])c2ccccc32)c1` (stereo unspecified): 200 °C; `O=C1Nc2ccc(I)cc2C1=NNC(=O)c1ccc(Oc2ccc(CN3CCOCC3)cc2)cc1`: 252 °C.
Next, `O=C(c1ccccc1)c1cc(CN2CCN(c3ccccc3)CC2)on1`: 100 to 102 °C; `O=C(On1nnc2ccc(Cl)cc21)c1ccccc1`: 132 °C.
`CCCC(CCNC(=O)C(C#N)=Cc1cc(O)c(O)c(O)c1)NC(=O)C(C#N)=Cc1cc(O)c(O)c(O)c1` (stereo unspecified) had a melting point greater than 300 °C.
For the compound `CCOC(=O)COc1ccc(CSCC(=O)OCC)cc1NC(=O)c1ccc(OCCCCc2ccccc2)cc1`, the melting point was in the range of 56 to 57 °C.
The result for `O=[N+]([O-])c1ccc(CO)c(CCO)c1` reads 79 to 81 °C.
Next, `OC1CSC(Oc2cc(-c3ccnc(F)c3)cc(F)c2F)C(O)C1O` (stereo unspecified): 184 °C; `O=C(O)c1cccc(NC(=O)C(CS)Cc2ccc(F)cc2)c1` (stereo unspecified): 180 to 182 °C; `Cc1cccc2nc(NC(=O)c3ccc(C(C)(C)C(=O)O)cc3)cn12`: 282 to 283 °C.
The result for `COc1ccc2c(c1)C(Cc1ccnc(F)c1)(Cc1ccnc(F)c1)c1ccccc1C2=O` reads 155 to 157 °C.
Regarding `CCOC(=O)COc1cc(OC)cc2c1c1c(n2Cc2ccccc2)CCCC1C(N)=O` (stereo unspecified), the melting point lay within 167 to 169 °C.
As for `Cn1nc2nnsc2c1C(N)=O`, the melting point lay within 183 to 184 °C.
Consider `COc1ccccc1NC(=O)Nc1nc(NCCc2ccc(O)cc2)nc(Oc2ccc3ccccc3c2)n1`, for which the melting point came to 238 °C.
Compound `CCCCOc1c(N(C)C(=O)OC(C)(C)C)n(CC(C)C)c(=O)c2ccc(-n3cnnn3)cc12` had a melting point of 199 to 200 °C.
Regarding `CCC(C(=O)C(C)C(O)C(C)CCC1=C(C(=O)O)C(O)=C(C)CC1=[N+]=[N-])C1OC(CC)(C2CCC(O)(CC)C(C)O2)CC1C` (stereo unspecified), the melting point fell in the range of 137 to 138 °C.
`CCCCCCCCCCn1c(=S)nc2cc(Cl)ccn2c1=S` gave a melting point of 153 to 155 °C.
Next, `Nc1[nH]c(=O)c(C(=O)NCC2CCN(CC3CCCCC3)CC2)cc1Cl`: 142 to 146 °C; `Cn1cc(C2=C(c3c4n(c5ccccc35)CCC4)C(=O)NC2=O)c2ccccc21`: 260 to 270 °C.
As to `CC(C)(C)N1C(=O)CN(c2ccccc2)C1=O`, the melting point turned out to be 116 °C.
Next, `Cc1onc2c1N(CCCOc1ccccc1)C(=O)COC2(C)c1ccccc1` (stereo unspecified): 118 to 120 °C; `COC(=O)c1c(F)c(F)c(N=[N+]=[N-])c(F)c1F`: 53.6 to 54.3 °C; `COc1ccc(C=C2CCc3cc(OCCn4ccnc4)ccc3C2=O)cc1`: 132 to 133 °C.
The result for `Cc1cc(-c2cc(C(F)(F)F)n3ncc(C(=O)Nc4cc(S(=O)(=O)NC(C)(C)CO)sc4Cl)c3n2)ccc1C(F)(F)F` reads 207 °C.
In turn, `COC(=O)CN(NC(N)=O)c1cc(C)cc(C)c1` yielded a melting point of 139 to 141 °C.
The compound `O=C(Cc1cc(F)cc(F)c1)N[C@@H](Cc1cc2ccccc2[nH]1)C(=O)N[C@@H]1C(=O)Nc2ccccc2S[C@@H]1c1ccccc1` had a melting point of 85 to 90 °C.
As for `CC1CC(C)CN(CCNC(=O)Nc2ccccc2)C1` (stereo unspecified), the melting point was in the range of 189 to 191 °C.
Compound `CC(=O)Nc1ccc(-c2nc3ccccc3o2)cc1` yielded a melting point of 214 to 215 °C.
The result for `CCOC(=O)c1cn(C(c2ccccc2)(c2ccccc2)c2ccccc2)nn1` reads 201 to 203 °C.
